# Literature values, collected in paper PMC9306982 (Journal of Food and Drug Analysis, 2019).
# Legend:
# [1] = test system: potassium oxonate-treated rat; conditions: oral administration
# [2] = test system: xanthine oxidase; conditions: for inhibitory activity against xanthine oxidase (in words): isolates from aerial part of Hyptis rhomboids
# [3] = compared with caffeoylquinic acids
compound,measurement,setting,value
"COC(=O)C1(O)CC(O)C(OC(=O)C=Cc2ccc(O)c(O)c2)C(OC(=O)C=Cc2ccc(O)c(O)c2)C1 (centres unmarked) [methyl 4,5-dicaffeoylquinate]",hypouricemic effect (in words),[1],good
epihyprhombin B,inhibitory activity against xanthine oxidase (in words),[2],good
O=C(/C=C/c1ccc(O)c(O)c1)O/C=C\c1ccc(O)c(O)c1 [netpetoidin B],inhibitory activity against xanthine oxidase (in words),[2],good
"O=C(O)/C=C/c1ccc(O)c(O)c1 [Compound 11, caffeic acid]",xanthine oxidase inhibitory activity (in words),[2],moderate
same,bioavailability (in words),[3],better
